Where two headings read alike, the source gives them in different places.
Target: T1, human α7 nicotinic acetylcholine receptor (HEK cell line stably expressing human RIC-3 and human α7) (Homo sapiens, UniProt P36544)
T1 construct: host or cells: HEK cell line (PrecisION hnAChR α7/RIC-3)
Test: Automated patch-clamp electrophysiology functional assay (Assay A), IonFlux HT, whole-cell population patch
Format: cell-based
Experimental: The α7 nAChR positive allosteric modulator (PAM) activity of the present compounds may be tested using assays known in the art. […] The assay was performed using the IonFlux HT in a whole-cell, population patch configuration. See Golden et al. Assay Drug Dev. Technol. […] The compounds were assessed for their ability to modulate the function of the human 7 nAChR stably expressed in a HEK cell line both in the presence, and in the absence of the natural 7 agonist acetylcholine. By performing a series of such measurements at different concentrations, the effective concentration of the 7 nAChR PAMs (EC50) was determined. See Spencer et al. Assay Drug Dev. Technol.
Direct activation of α7 (agonism), and potentiation of acetylcholine-evoked 7 currents was determined as follows:
Automated patch-clamp electrophysiology was performed using the IonFlux HT (Fluxion Biosciences Inc., San Francisco, Calif.) in the whole-cell, population patch configuration. Test compounds were assessed for their ability to modulate the function of the α7 nicotinic acetylcholine receptor both in the presence, and in the absence of the natural α7 agonist acetylcholine. […] Immediately prior to assay, cells were detached by first aspirating growth media, rinsing with Dulbecco's phosphate buffered saline, and then adding 10 mL of Accutase (Innovative Cell Technologies, San Diego, Calif.) to the flask and then incubating at 37° C. for 5 minutes. Detached cells were then recovered by the addition of 40 mL of CHO-serum-free media supplemented with 25 mM HEPES, and rocked gently in a 50 mL conical tube for 20 minutes prior to patch-clamp assay. After recovery, cells were pelleted by centrifugation at 1,000 RPM for 1 minute in a compact bench top centrifuge; recovery media was aspirated and cells were resuspended in external recording solution (150 mM NaCl, 5 mM KCl, 2 mM CaCl2), 1 mM MgCl2, 10 mM HEPES, 12 mM dextrose) to a density of 5.0×10^6 cells/mL. The cell suspension was added to the cell inlet wells on an IonFlux HT population patch plate which had previously been rinsed and primed with deionized H2O. Test compounds were serially diluted in DMSO and then resuspended to the final test concentration in external recording solution, with, or without 40 μM acetylcholine added to the external recording solution; test compounds were then transferred to the IonFlux HT population patch plate. Internal recording solution (110 mM TrisPO4, 28 mM TrisBase, 0.1 mM CaCl2, 2 mM MgCl2, 11 mM EGTA, 4 mM MgATP) was added to the internal recording solution inlet wells on the IonFlux HT patch plate previously loaded with cells and test compounds, and the plate loaded into the IonFlux HT instrument. A protocol was executed on the IonFlux HT to trap the cells, break into the cells, and establish the whole-cell recording configuration; cells were voltage-clamped at a holding potential of −60 mV for the duration of the experiment, all experiments were conducted at room temperature, and the IonFlux HT injection pressure was 8 psi for solution applications. Upon establishing the whole-cell configuration, external recording solution was perfused into the recording chambers for 120 seconds and then 40 μM acetylcholine was applied for 1 second and immediately washed off with external recording solution for 60 seconds. The 40 μM acetylcholine-evoked α7 current served as the current response to which subsequent test compound effects, in the presence, or in the absence of 40 μM acetylcholine would be quantified relative to. Next, test compounds were evaluated at multiple concentrations for their ability to induce, or modulate 7 current responses; three concentrations of test compound were evaluated in ascending dose fashion per recording.

[1] = HEK cells expressing human α7/RIC-3, test compound with or without 40 μM acetylcholine, holding potential −60 mV, room temperature, read-out: α7 nAChR Potency
[2] = automated patch-clamp electrophysiology functional assay (Assay A), read-out: α7 nAChR EC50

T1 sequence (P36544 23-502): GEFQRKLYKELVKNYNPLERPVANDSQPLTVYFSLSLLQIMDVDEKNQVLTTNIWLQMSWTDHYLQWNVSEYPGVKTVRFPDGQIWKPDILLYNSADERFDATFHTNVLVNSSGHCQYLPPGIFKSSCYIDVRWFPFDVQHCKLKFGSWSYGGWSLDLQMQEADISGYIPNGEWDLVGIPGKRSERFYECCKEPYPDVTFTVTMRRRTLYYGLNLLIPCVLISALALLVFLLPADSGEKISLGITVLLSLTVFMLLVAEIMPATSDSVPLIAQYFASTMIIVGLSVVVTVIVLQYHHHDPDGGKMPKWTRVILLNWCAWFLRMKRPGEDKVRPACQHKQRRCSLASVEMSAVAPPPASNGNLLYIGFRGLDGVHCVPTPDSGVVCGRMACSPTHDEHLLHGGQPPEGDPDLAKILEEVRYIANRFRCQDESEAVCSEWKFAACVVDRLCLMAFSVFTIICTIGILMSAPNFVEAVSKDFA

EC50 [1] [µM] | EC50 [2] [µM] | Compound
0.5 to 5 | 1.9 | CC(C)C1CC(c2nc([C@@H]3CC34CCN(S(N)(=O)=O)CC4)no2)C1 (mixture of isomers) [Example E3]
0.5 to 5 | 3.4 | CC1CCCC(c2nc([C@@H]3CC34CCN(S(N)(=O)=O)CC4)no2)C1 (mixture of isomers) [Example E7]
0.5 to 5 | 3.9 | CC(c1nc([C@@H]2CC23CCN(S(N)(=O)=O)CC3)no1)c1ccccc1Cl (mixture of isomers) [Example E8]
0.5 to 5 | 4.3 | NS(=O)(=O)N1CCC2(CC1)C[C@H]2c1noc(C2CCCCC23CC3)n1 (mixture of isomers) [Example E11]
0.5 to 5 | 1.3 | NS(=O)(=O)N1CCC2(CC1)C[C@H]2c1noc(C2CCc3c(F)cccc32)n1 (mixture of isomers) [Example E13]
0.5 to 5 | 1.5 | NS(=O)(=O)N1CCC2(CC1)C[C@H]2c1noc(C2CC(c3ccccc3)C2)n1 (mixture of isomers) [Example E15]
0.5 to 5 | 0.82 | NS(=O)(=O)N1CCC2(C(F)C1)C(c1nc(-c3conc3C3CC3)no1)C2(F)F (mixture of isomers) [Example I11]
0.1 to 0.5 | 0.43 | Cc1ccc(C)c(-c2nc(C3C(F)(F)C34CCN(S(N)(=O)=O)C(C)C4)no2)c1 (mixture of isomers) [Example K2]
0.5 to 5 | 2.3 | COc1ccc(Cl)cc1-c1noc(C2CC23CCN(S(=O)(=O)Cc2ccccn2)CC3)n1 (racemic) [Example B1]
0.5 to 5 | 3.2 | COc1ccc(Cl)cc1-c1noc(C2CC23CCN(S(=O)(=O)c2ccn(C)n2)CC3)n1 (racemic) [Example B4]
0.5 to 5 | 3 | COc1ccc(Cl)cc1-c1noc(C2CC23CCN(S(=O)(=O)CCc2ccccc2)CC3)n1 (racemic) [Example B5]
0.5 to 5 | – | COc1ccc(Cl)cc1-c1noc(C2CC23CCN(S(=O)(=O)c2cccc4nonc24)CC3)n1 (racemic) [Example B6]
0.5 to 5 | 3.3 | COc1ccc(Cl)cc1-c1noc(C2CC23CCN(S(=O)(=O)c2ccc4ncsc4c2)CC3)n1 (racemic) [Example B7]
0.5 to 5 | – | COc1ccc(Cl)cc1-c1noc(C2CC23CCN(S(=O)(=O)c2c(O)no[n+]2C)CC3)n1 (racemic) [Example B8]
5 to 50 | 5.4 | COc1ccc(Cl)cc1-c1noc(C2CC23CCN(C(=O)NC(C)(C)C)CC3)n1 (racemic) [Example B9]
0.5 to 5 | – | COc1ccc(Cl)cc1-c1noc(C2CC23CCN(C(=O)NC2CCCCC2)CC3)n1 (racemic) [Example B10]
0.5 to 5 | 3.5 | COc1ccc(Cl)cc1-c1noc(C2CC23CCN(S(=O)(=O)NCc2ccccn2)CC3)n1 (racemic) [Example B11]
0.5 to 5 | 3.4 | COc1ccc(Cl)cc1-c1noc(C2CC23CCN(C(=O)NCc2ccns2)CC3)n1 (racemic) [Example B12]
5 to 50 | 5.1 | COc1ccc(Cl)cc1-c1noc(C2CC23CCN(C(=O)NCc2ccccc2)CC3)n1 (racemic) [Example B13]
0.5 to 5 | 1.1 | COc1ccc(Cl)cc1-c1noc(C2CC23CCN(S(C)(=O)=O)CC3)n1 (racemic) [Example B14]
0.5 to 5 | 3.6 | CNc1ncccc1-c1noc(C2CC23CCN(S(N)(=O)=O)CC3)n1 (racemic) [Example C1]

EC50 [1] [µM] | EC50 [2] [µM] | Compound
0.5 to 5 | – | NS(=O)(=O)N1CCC2(CC1)CC2c1nc(-c2ccnc(N3CCCC3)c2)no1 (racemic) [Example C2]
0.1 to 0.5 | 0.4 | Cc1noc(C)c1-c1noc(C2C(F)(F)C23CCN(S(N)(=O)=O)CC3)n1 (racemic) [Example C3]
0.5 to 5 | – | COc1ccc(Cl)cc1-c1noc(C2CC23CCN(S(N)(=O)=O)CC3)n1 (racemic) [Example C13]
0.5 to 5 | 2.7 | NS(=O)(=O)N1CCC2(CC1)C(c1nc(-c3ccc(F)cc3C(F)(F)F)no1)C2(Cl)Cl (racemic) [Example C17]
0.5 to 5 | 1.6 | Cc1ccc(C)c(-c2noc(C3(C)C(F)(F)C34CCN(S(N)(=O)=O)CC4)n2)c1 (racemic) [Example C18]
0.5 to 5 | 0.76 | COc1ccc(Cl)cc1-c1nc(C2CC23CCN(S(C)(=O)=O)CC3)no1 (racemic) [Example J1]
0.5 to 5 | 1 | NS(=O)(=O)N1CCC2(CC1)C(c1nsc(N3CCCCC3)n1)C2(F)F (racemic) [Example J2]
0.1 to 0.5 | 0.48 | COc1ccc(Cl)cc1-c1nc(C2CC23CCN(S(C)(=O)=O)CC3)no1 (single isomer, unassigned) [Example 26, 1-[5-(5-Chloro-2-methoxyphenyl)-1,2,4-oxadiazol-3-yl]-6-(methylsulfonyl)-6-azaspiro[2.5]octane]
0.5 to 5 | 0.75 | NS(=O)(=O)N1CCC2(CC2c2nc(-c3cccc(OC(F)F)c3)no2)C(F)C1 (single isomer, unassigned) [Example I1]
0.5 to 5 | 1 | NS(=O)(=O)N1CCC2(CC2c2nc(-c3cccc(OC(F)F)c3)no2)C(F)C1 (single isomer, unassigned) [Example I2]
0.5 to 5 | 2.3 | NS(=O)(=O)N1CCC2(CC2c2nc(-c3ccccc3)no2)C(F)(F)C1 (single isomer, unassigned) [Example I3]
0.5 to 5 | 1.5 | Cc1ccc(C)c(-c2noc(C3CC34CCN(S(N)(=O)=O)CC4(F)F)n2)c1 (single isomer, unassigned) [Example I4]
0.5 to 5 | 1.2 | CC1CN(S(N)(=O)=O)CCC12CC2c1nc(-c2ccnc(OCC(F)(F)F)c2)no1 (single isomer, unassigned) [Example I5]
0.5 to 5 | 0.84 | NS(=O)(=O)N1CCC2(CC2c2nc(-c3conc3C3CC3)no2)C(F)C1 (single isomer, unassigned) [Example I6]
0.5 to 5 | 1.5 | NS(=O)(=O)N1CCC2(CC2c2nc(-c3conc3C3CC3)no2)C(F)C1 (single isomer, unassigned) [Example I7]
5 to 50 | – | NS(=O)(=O)N1CCC2(CC2c2nc(-c3conc3C3CC3)no2)C(F)C1 (single isomer, unassigned) [Example I8]
0.5 to 5 | 3.3 | NS(=O)(=O)N1CCC2(CC2c2nc(-c3conc3C3CC3)no2)C(F)C1 (single isomer, unassigned) [Example I9]
0.5 to 5 | 3.4 | NS(=O)(=O)N1CCC2(CC2c2nc(-c3conc3C3CC3)no2)C(F)C1 (single isomer, unassigned) [Example I10]
0.5 to 5 | 0.6 | NS(=O)(=O)N1CCC2(C(F)C1)C(c1nc(-c3conc3C3CC3)no1)C2(F)F (single isomer, unassigned) [Example I13]
0.1 to 0.5 | 0.33 | NS(=O)(=O)N1CCC2(C(F)C1)C(c1nc(-c3conc3C3CC3)no1)C2(F)F (single isomer, unassigned) [Example I14]
< 0.1 | 0.087 | Cc1ccc(C)c(-c2nc(C3C(F)(F)C34C3CCC4CN(S(N)(=O)=O)C3)no2)c1 (single isomer, unassigned) [Example K1]

Compound | EC50 [1] [µM] | EC50 [2] [µM]
COc1ccc(Cl)cc1-c1noc(C2CC23CCN(S(=O)(=O)CC2CCCCO2)CC3)n1 (mixture of isomers) [Example B3] | 0.5 to 5 | 1.3
COc1ccc(Cl)cc1-c1noc(C2CC23CCN(S(=O)(=O)c2ccsc2)CC3)n1 (racemic) [Example B2] | 0.5 to 5 | –

From patent publication US11332463B2, “Spiropiperidine allosteric modulators of nicotinic acetylcholine receptors” (Merck Sharp & Dohme Corp., priority 2018, dated 2022)
